Assay results published in patent publication US20240124491A1, “METHODS AND COMPOUNDS FOR TREATING FRIEDREICH'S ATAXIA” (Design Therapeutics, Inc., priority 2021, published 2024).

Test system: human FXN
Experiment: EC50 assay: FXN mRNA expression by qRT-PCR in GM15850 cells after 48 hrs compound treatment
Assay type: cell-based
Conditions: Homo sapiens, 48 hrs incubation, hFXN expression normalized to hGAPDH (qRT-PCR), read-out: EC50 WT (nM, 48 hr)
In short: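 FXN transcript, normalized to GAPDH by TaqMan qRT-PCR, read out after 48 hrs of compound on GM15850 cells plated at 150,000 per well. Dosing used five 3-fold steps from 150 nM final, vehicle 0.01% DMSO.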

SMILES: Cc1sc2c(c1C)C(c1ccc(Cl)cc1)=N[C@@H](CC(=O)N[C@H]1CC[C@@H](N(C)CCOCCOCCOCCN3CCN(CCOCCOCCOCCNC(=O)CCNC(=O)c4nc(NC(=O)CCNC(=O)C5=CC(NC(=O)c6nc(NC(=O)CCNC(=O)c7cc(NC(=O)c8nccn8C)cn7C)cn6C)CN5C)cn4C)CC3)CC1)c1nnc(C)n1-2 (stereo partly drawn) [Compound 86]
- EC50: 100 to 500 nM

SMILES: Cc1sc2c(c1C)C(c1ccc(Cl)cc1)=N[C@@H](CC(=O)N[C@H]1CC[C@@H](N(C)CCOCCOCCOCCOCCOCCOCCOCCOCCNC(=O)CCNC(=O)c3nc(NC(=O)CCNC(=O)c4cc(NC(=O)c5nc(NC(=O)CCNC(=O)c6cc(NC(=O)c7nccn7C)cn6C)cn5C)cn4C)cn3C)CC1)c1nnc(C)n1-2 [Compound 87]
- EC50: < 100 nM

SMILES: Cc1sc2c(c1C)C(c1ccc(Cl)cc1)=N[C@@H](CC(=O)NC1CCN(CCOCCOCCOCCOCCOCCOCCOCCOCCNC(=O)CCNC(=O)c3nc(NC(=O)CCNC(=O)c4cc(NC(=O)c5nc(NC(=O)CCNC(=O)c6cc(NC(=O)c7nccn7C)cn6C)cn5C)cn4C)cn3C)CC1)c1nnc(C)n1-2 [Compound 88]
- EC50: < 100 nM

SMILES: Cc1sc2c(c1C)C(c1ccc(Cl)cc1)=N[C@@H](CC(=O)NC1CCN(C3CN(CCOCCOCCOCCOCCOCCOCCOCCNC(=O)CCNC(=O)c4nc(NC(=O)CCNC(=O)c5cc(NC(=O)c6nc(NC(=O)CCNC(=O)c7cc(NC(=O)c8nccn8C)cn7C)cn6C)cn5C)cn4C)C3)CC1)c1nnc(C)n1-2 [Compound 89]
- EC50: < 100 nM

SMILES: Cc1sc2c(c1C)C(c1ccc(Cl)cc1)=N[C@@H](CC(=O)NC1CCN(C3CCN(CCOCCOCCOCCOCCOCCOCCOCCNC(=O)CCNC(=O)c4nc(NC(=O)CCNC(=O)C5=CC(NC(=O)c6nc(NC(=O)CCNC(=O)c7cc(NC(=O)c8nccn8C)cn7C)cn6C)CN5C)cn4C)CC3)CC1)c1nnc(C)n1-2 (stereo partly drawn) [Compound 90]
- EC50: 100 to 500 nM

SMILES: Cc1sc2c(c1C)C(c1ccc(Cl)cc1)=N[C@@H](CC(=O)NC1CCN(CCN3CCN(CCOCCOCCOCCOCCOCCOCCNC(=O)CCNC(=O)c4nc(NC(=O)CCNC(=O)c5cc(NC(=O)c6nc(NC(=O)CCNC(=O)c7cc(NC(=O)c8nccn8C)cn7C)cn6C)cn5C)cn4C)CC3)CC1)c1nnc(C)n1-2 [Compound 91]
- EC50: < 100 nM

SMILES: Cc1sc2c(c1C)C(c1ccc(Cl)cc1)=N[C@@H](CC(=O)NC1CCN(CC#CC#CC3CCN(CCOCCOCCOCCOCCOCCNC(=O)CCNC(=O)c4nc(NC(=O)CCNC(=O)c5cc(NC(=O)c6nc(NC(=O)CCNC(=O)c7cc(NC(=O)c8nccn8C)cn7C)cn6C)cn5C)cn4C)CC3)CC1)c1nnc(C)n1-2 [Compound 92]
- EC50: < 100 nM

SMILES: Cc1sc2c(c1C)C(c1ccc(Cl)cc1)=N[C@@H](CC(=O)NC1CCN(CCOCCOCCOCCOCCOCCOCCOCCN3CCN(C(=O)CCNC(=O)c4nc(NC(=O)CCNC(=O)c5nc(NC(=O)c6nc(NC(=O)CCNC(=O)c7cc(NC(=O)c8nccn8C)cn7C)cn6C)cn5C)cn4C)CC3)CC1)c1nnc(C)n1-2 [Compound 98]
- EC50: 100 to 500 nM

SMILES: Cc1sc2c(c1C)C(c1ccc(Cl)cc1)=N[C@@H](CC(=O)NC1CCN(CCOCCOCCOCCOCCOCCOCCOCCNC3CCN(C(=O)CCNC(=O)c4nc(NC(=O)CCNC(=O)c5nc(NC(=O)c6nc(NC(=O)CCNC(=O)c7cc(NC(=O)c8nccn8C)cn7C)cn6C)cn5C)cn4C)CC3)CC1)c1nnc(C)n1-2 [Compound 99]
- EC50: 100 to 500 nM

SMILES: Cc1sc2c(c1C)C(c1ccc(Cl)cc1)=N[C@@H](CC(=O)N1CCN(CCOCCOCCOCCOCCOCCOCCOCCOCCNC(=O)CCNC(=O)c3nc(NC(=O)CCNC(=O)c4cc(NC(=O)c5nc(NC(=O)CCNC(=O)c6cc(NC(=O)c7nccn7C)cn6C)cn5C)cn4C)cn3C)CC1)c1nnc(C)n1-2 [Compound 101]
- EC50: > 500 nM

SMILES: Cc1sc2c(c1C)C(c1ccc(Cl)cc1)=N[C@@H](CC(=O)Nc1ccc(C#CC#CCN(CCOCCOCCOCCOCCOCCN)CCOCCOCCOCCOCCOCCNC(=O)CCNC(=O)c3nc(NC(=O)CCNC(=O)c4cc(NC(=O)c5nc(NC(=O)CCNC(=O)c6cc(NC(=O)c7nccn7C)cn6C)cn5C)cn4C)cn3C)cc1)c1nnc(C)n1-2 [Compound 104]
- EC50: 100 to 500 nM

SMILES: Cc1sc2c(c1C)C(c1ccc(Cl)cc1)=N[C@@H](CC(=O)NC1CCN(CCOCCOCCN3CCN(CCOCCOCCOCCOCCNC(=O)CCNC(=O)c4nc(NC(=O)CCNC(=O)c5cc(NC(=O)c6nc(NC(=O)CCNC(=O)c7cc(NC(=O)c8nccn8C)cn7C)cn6C)cn5C)cn4C)CC3)CC1)c1nnc(C)n1-2 [Compound 106]
- EC50: < 100 nM

SMILES: Cc1sc2c(c1C)C(c1ccc(Cl)cc1)=N[C@@H](CC(=O)NC1CCN(CCCCCN3CCN(CCOCCOCCOCCOCCOCCNC(=O)CCNC(=O)c4nc(NC(=O)CCNC(=O)c5cc(NC(=O)c6nc(NC(=O)CCNC(=O)c7cc(NC(=O)c8nccn8C)cn7C)cn6C)cn5C)cn4C)CC3)CC1)c1nnc(C)n1-2 [Compound 107]
- EC50: 100 to 500 nM

SMILES: Cc1sc2c(c1C)C(c1ccc(Cl)cc1)=N[C@@H](CC(=O)NC1CCN(CCOCCOCCOCCOCCN3CCN(CCOCCOCCNC(=O)CCNC(=O)c4nc(NC(=O)CCNC(=O)c5cc(NC(=O)c6nc(NC(=O)CCNC(=O)c7cc(NC(=O)c8nccn8C)cn7C)cn6C)cn5C)cn4C)CC3)CC1)c1nnc(C)n1-2 [Compound 108]
- EC50: < 100 nM

SMILES: Cc1sc2c(c1C)C(c1ccc(Cl)cc1)=N[C@@H](CC(=O)NC1CCN(CCOCCOCCOCCOCCOCCN3CCN(CCCCCNC(=O)CCNC(=O)c4nc(NC(=O)CCNC(=O)c5cc(NC(=O)c6nc(NC(=O)CCNC(=O)c7cc(NC(=O)c8nccn8C)cn7C)cn6C)cn5C)cn4C)CC3)CC1)c1nnc(C)n1-2 [Compound 109]
- EC50: 100 to 500 nM

SMILES: Cc1sc2c(c1C)C(c1ccc(Cl)cc1)=N[C@@H](CC(=O)NCCOCCOCCOCCN(CCOCCOCCOCCNC(=O)C[C@@H]1N=C(c3ccc(Cl)cc3)c3c(sc(C)c3C)-n3c(C)nnc31)CCOCCOCCOCCOCCOCCNC(=O)CCNC(=O)c1nc(NC(=O)CCNC(=O)c3cc(NC(=O)c4nc(NC(=O)CCNC(=O)c5cc(NC(=O)c6nccn6C)cn5C)cn4C)cn3C)cn1C)c1nnc(C)n1-2 [Compound 111]
- EC50: < 100 nM

SMILES: Cc1sc2c(c1C)C(c1ccc(Cl)cc1)=N[C@@H](CC(=O)NC1CCN(CCOCCOCCN(CCOCCOCCOCCOCCOCCNC(=O)CCNC(=O)c3nc(NC(=O)CCNC(=O)c4cc(NC(=O)c5nc(NC(=O)CCNC(=O)c6cc(NC(=O)c7nccn7C)cn6C)cn5C)cn4C)cn3C)CCOCCOCCN3CCC(NC(=O)C[C@@H]4N=C(c5ccc(Cl)cc5)c5c(sc(C)c5C)-n5c(C)nnc54)CC3)CC1)c1nnc(C)n1-2 [Compound 112]
- EC50: 100 to 500 nM

SMILES: Cc1sc2c(c1C)C(c1ccc(Cl)cc1)=N[C@@H](CC(=O)NCCCCCN(CCCCCNC(=O)C[C@@H]1N=C(c3ccc(Cl)cc3)c3c(sc(C)c3C)-n3c(C)nnc31)CCOCCOCCOCCOCCOCCNC(=O)CCNC(=O)c1nc(NC(=O)CCNC(=O)c3cc(NC(=O)c4nc(NC(=O)CCNC(=O)c5cc(NC(=O)c6nccn6C)cn5C)cn4C)cn3C)cn1C)c1nnc(C)n1-2 [Compound 113]
- EC50: < 100 nM

SMILES: Cc1sc2c(c1C)C(c1ccc(Cl)cc1)=N[C@@H](CC(=O)NCCCCCN(CCCCCNC(=O)C[C@@H]1N=C(c3ccc(Cl)cc3)c3c(sc(C)c3C)-n3c(C)nnc31)CCOCCOCCOCCOCCOCCOCCOCCNC(=O)CCNC(=O)c1nc(NC(=O)CCNC(=O)c3cc(NC(=O)c4nc(NC(=O)CCNC(=O)c5cc(NC(=O)c6nccn6C)cn5C)cn4C)cn3C)cn1C)c1nnc(C)n1-2 [Compound 114]
- EC50: < 100 nM

SMILES: COc1nnc2ccc(N3CCC(c4ccc(OCCN5[C@H](C)CN(C(=O)COCCOCCOCCOCCOCCOCCOCCOCCNC(=O)CCNC(=O)c6nc(NC(=O)CCNC(=O)c7cc(NC(=O)c8nc(NC(=O)CCNC(=O)c9cc(NC(=O)c%10nccn%10C)cn9C)cn8C)cn7C)cn6C)C[C@@H]5C)cc4)CC3)nn12 [Compound 115]
- EC50: > 500 nM

SMILES: COc1nnc2ccc(N3CCC(c4ccc(OCCN5CCN(CCOCCOCCOCCOCCOCCOCCOCCOCCNC(=O)CCNC(=O)c6nc(NC(=O)CCNC(=O)c7cc(NC(=O)c8nc(NC(=O)CCNC(=O)c9cc(NC(=O)c%10nccn%10C)cn9C)cn8C)cn7C)cn6C)C(=O)[C@H]5C)cc4)CC3)nn12 [Compound 116]
- EC50: > 500 nM

SMILES: Cc1sc2c(c1C)C(c1ccc(Cl)cc1)=N[C@@H](CC(=O)NCCOCCOCCOCCOCCOCCOCCOCCNC(=O)c1sc3c(c1C)C(c1ccc(Cl)cc1)=N[C@@H](CC(=O)NC1CCN(CCOCCOCCOCCOCCOCCOCCOCCOCCNC(=O)CCNC(=O)c4nc(NC(=O)CCNC(=O)c5cc(NC(=O)c6nc(NC(=O)CCNC(=O)c7cc(NC(=O)c8nccn8C)cn7C)cn6C)cn5C)cn4C)CC1)c1nnc(C)n1-3)c1nnc(C)n1-2 [Compound 117]
- EC50: < 100 nM

SMILES: Cc1sc2c(c1C)C(c1ccc(N)cc1)=N[C@@H](CC(=O)N1CCC(C#CC#CC3CCN(CCOCCOCCOCCOCCNC(=O)CCNC(=O)c4nc(NC(=O)CCNC(=O)c5cc(NC(=O)c6nc(NC(=O)CCNC(=O)c7cc(NC(=O)c8nccn8C)cn7C)cn6C)cn5C)cn4C)CC3)CC1)c1nnc(C)n1-2 [Compound 119]
- EC50: < 100 nM

SMILES: COCCOCCOCCOCCOCCOCCOCCOCCOCCOCCOCCC(=O)Nc1ccc(C2=N[C@@H](CC(=O)N3CCC(C#CC#CC4CCN(CCOCCOCCOCCOCCNC(=O)CCNC(=O)c5nc(NC(=O)CCNC(=O)c6cc(NC(=O)c7nc(NC(=O)CCNC(=O)c8cc(NC(=O)c9nccn9C)cn8C)cn7C)cn6C)cn5C)CC4)CC3)c3nnc(C)n3-c3sc(C)c(C)c32)cc1 [Compound 120]
- EC50: 100 to 500 nM

SMILES: Cc1sc2c(c1C)C(c1ccc(NC(=O)COCCOCCOCCN3CCN(CC4CCN(C)CC4)CC3)cc1)=N[C@@H](CC(=O)N1CCC(C#CC#CC3CCN(CCOCCOCCOCCOCCNC(=O)CCNC(=O)c4nc(NC(=O)CCNC(=O)c5cc(NC(=O)c6nc(NC(=O)CCNC(=O)c7cc(NC(=O)c8nccn8C)cn7C)cn6C)cn5C)cn4C)CC3)CC1)c1nnc(C)n1-2 [Compound 121]
- EC50: 100 to 500 nM

SMILES: Cc1sc2c(c1C)C(c1ccc(Cl)cc1)=N[C@@H](CC(=O)N1CCC(C#CC#CCN(CCOCCOCCOCCOCCOCCNC(=O)CCNC(=O)c3nc(NC(=O)CCNC(=O)c4cc(NC(=O)c5nc(NC(=O)CCNC(=O)c6cc(NC(=O)c7nccn7C)cn6C)cn5C)cn4C)cn3C)CC(O)COCC(O)CO)CC1)c1nnc(C)n1-2 (stereo partly drawn) [Compound 122]
- EC50: 100 to 500 nM

SMILES: Cc1sc2c(c1C)C(c1ccc(Cl)cc1)=N[C@@H](CC(=O)Nc1ccc(N3CCC(N4CCN(CCOCCOCCOCCOCCOCCOCCNC(=O)CCNC(=O)c5nc(NC(=O)CCNC(=O)c6cc(NC(=O)c7nc(NC(=O)CCNC(=O)c8cc(NC(=O)c9nccn9C)cn8C)cn7C)cn6C)cn5C)CC4)CC3)nc1)c1nnc(C)n1-2 [Compound 124]
- EC50: < 100 nM
